Patent publication US11795510B2, “Identification of epigenomic reprogramming in cancer and uses thereof” (The Johns Hopkins University, priority 2016, dated 2023)
Entries after “also recorded” stand apart in the source; their conditions may differ.

Experiments:
[1] = system: H3K9Me2, H3K27Ac, H3K27Me3 in LOCK regions of A38Lg; test: ChIP-seq on control (DMSO) and 6AN-treated A38Lg cells; assay type: cell-based, human; conditions: DMSO vs. 6AN
Protocol: RNAi experiments were performed with siRNA transfections (Oligofectamine, Life Technologies) using negative control siRNA (Sigma, SIC001) and pre-designed siRNA oligonucleotides against indicated genes in parallel (Sigma, PGD: SASI_Hs02 00334150, CDH2: SASI_Hs01_00153995, TOP2B: SASI_Hs02_00311874). siRNAs against mutant KRAS^G12V (CUACGCCAACAGCUCCAAC) (SEQ ID NO:1) were custom designed. Cells were incubated with siRNAs for 4 days after transfection and harvested. For drug treatments in 2-D, cells were grown to 70-80% confluency and treated for 3 days with 250 uM 6AN or DMSO negative control.
Tests for statistical significance (two-tailed students t-test) were performed on data collected from technical replicate (performed in parallel at the same time) or biological replicate (performed at different times) experiments as indicated in the figure legends using excel software for western blot densitometry, MTT assays, and tumor measurements. Whole genome bisulfite sequencing and RNA-seq were performed with HiSeq instruments (Illumina) as described in Hansen et al. (Increased methylation variation in epigenetic domains across cancer types. Nat Genet 43, 768-75 (2011)). ChIP assays were performed as previously described for fixed cells with sonication. For ChIP-qPCR, equal amounts of paired input/IP DNA were amplified by real-time PCR (Roche LightCycler96) and fold enrichments calculated. Primer sequences are listed in Supplementary Table 11. […] IP sequencing reads were normalized to their corresponding inputs. […]
Chip-seq data processing. For 46 bp paired-end Illumina HiSeq2000 sequencing data, reads were aligned against human genome (hg19) using BWA with default parameters as described in Li et al. (Fast and accurate short read alignment with Burrows-Wheeler transform. Bioinformatics 25, 1754-60 (2009)). After alignment, duplicate reads were removed and only uniquely aligned reads were kept for further analysis. For 48 bp single-end Solid sequencing data, reads were aligned using Bowtie^7 with default parameters and only uniquely aligned reads were kept for further analysis. […]

[2] = system: glucose incorporation into lactate and nucleotides (PPP); test: 13C-1,2 glucose tracing by LC-HRMS; assay type: cell-based, human; conditions: 10 mM 13C-1,2 glucose, 36 hours
Protocol: Tissue samples and cell lines were previously collected from PDAC patients by rapid autopsy, sequenced-validated, and monitored for mycoplasma as previously described. Low passage (2-17) rapid autopsy cell lines were cultured at 37° C. in DMEM with 10% fetal bovine serum (FBS, Gibco). For MTT assays, 15,000 cells/well were plated into 96 well plates in triplicate, treated 12 hours later, and assayed after 24 hr (glucose responses) or 6 days (chemotherapy) with CellTiter96 (Promega). For glucose response assays, nutrient-deplete DMEM (no glucose, glutamine, pyruvate, or serum) was used with addition of glucose as indicated. […] Cells were then washed with PBS, trypsinized, and viable cells counted with a hemocytometer. Glucose uptake and lactate secretion were measured with a YSI 7100 Bioanalyzer as described in the supplementary methods. […]
LC-HRMS Metabolite Profiling. LC-HRMS samples were prepared and analyzed as described in Liu et al. (Development and quantitative evaluation of a high-resolution metabolomics technology. Anal Chem 86, 2175-84 (2014)). […] Additional replicates were also included and counted at the end of the experiment for normalization. […] Pellets were reconstituted into a volume normalized to protein content (15 uL of 1:1 acetonitrile:methanol and 15 uL of water was used per 1 mg protein) and analyzed by LC-QE-MS. […]

For `NC(=O)c1ccc(N)nc1` [6AN, 6-aminonicotinamide], the “H3K27Ac at genes repressed from LOCKs (ChIP-seq)” value [1] was “reduced”, the “LOCK-wide H3K9Me2 from reprogrammed regions (ChIP-seq)” value [1] was “quantitative increase” and the “levels of H3K27Me3 (ChIP-seq)” value [1] was “remained stable; also recorded: unchanged”. For the same compound, the “incorporation of labeled glucose into lactate and nucleotides (metabolites downstream of the PPP)” value [2] was “reversed the previously detected high incorporation; also recorded: reduced incorporation”.
